Entries after “also recorded” stand apart in the source; their conditions may differ. Non-standard residues stand in square brackets, D forms with d. Residues, ends and D or L forms follow the SMILES beside them. Dap = NC[C@H](N)C(=O)O
Experiments:
[1] = biological target: mMC1R (Mus musculus, UniProt Q01727); experiment: cAMP AlphaScreen agonist assay, HEK293 cells stably expressing mouse MC1R; settings: for agonist activity/efficacy at mMC1R (in words): concentrations up to 100 μM; for EC50: read-out: mMC1R EC50, agonist, cAMP
mMC1R, sequence (Q01727 whole entry): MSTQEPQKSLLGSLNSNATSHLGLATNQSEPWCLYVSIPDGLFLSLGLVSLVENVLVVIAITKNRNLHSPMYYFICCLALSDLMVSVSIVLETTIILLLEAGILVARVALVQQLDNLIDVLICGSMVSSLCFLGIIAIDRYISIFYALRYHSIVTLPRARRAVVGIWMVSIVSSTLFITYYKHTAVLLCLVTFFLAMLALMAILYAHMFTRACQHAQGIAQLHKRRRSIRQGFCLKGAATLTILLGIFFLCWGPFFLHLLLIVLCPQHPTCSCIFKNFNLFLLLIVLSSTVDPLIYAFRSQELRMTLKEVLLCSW

[2] = biological target: mMC3R (Mus musculus, UniProt P33033); experiment: cAMP AlphaScreen agonist assay, HEK293 cells stably expressing mouse MC3R; settings: for agonist activity/efficacy at mMC3R (in words): concentrations up to 100 μM; for EC50: read-out: mMC3R EC50, agonist, cAMP; for mMC3R percent maximal stimulatory response at 100 μM: no EC50 determinable, relative to NDP-MSH
mMC3R, sequence (P33033 whole entry): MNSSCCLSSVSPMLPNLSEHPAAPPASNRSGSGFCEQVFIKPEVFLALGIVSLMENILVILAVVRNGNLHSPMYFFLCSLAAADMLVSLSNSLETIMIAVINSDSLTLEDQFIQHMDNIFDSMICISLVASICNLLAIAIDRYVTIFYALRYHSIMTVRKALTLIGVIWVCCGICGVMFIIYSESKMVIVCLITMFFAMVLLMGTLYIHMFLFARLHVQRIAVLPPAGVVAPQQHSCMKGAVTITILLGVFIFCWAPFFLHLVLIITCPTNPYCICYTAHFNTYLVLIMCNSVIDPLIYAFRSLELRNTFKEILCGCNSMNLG

[3] = biological target: mMC4R (Mus musculus, UniProt P56450); experiment: cAMP AlphaScreen agonist assay, HEK293 cells stably expressing mouse MC4R; settings: for agonist activity/efficacy at mMC4R (in words): concentrations up to 100 μM; for EC50: read-out: mMC4R EC50, agonist, cAMP; for mMC4R percent maximal stimulatory response at 100 μM: no EC50 determinable, relative to NDP-MSH; for selectivity for the mMC4R over the mMC3R: agonist potency
mMC4R, sequence (P56450 whole entry): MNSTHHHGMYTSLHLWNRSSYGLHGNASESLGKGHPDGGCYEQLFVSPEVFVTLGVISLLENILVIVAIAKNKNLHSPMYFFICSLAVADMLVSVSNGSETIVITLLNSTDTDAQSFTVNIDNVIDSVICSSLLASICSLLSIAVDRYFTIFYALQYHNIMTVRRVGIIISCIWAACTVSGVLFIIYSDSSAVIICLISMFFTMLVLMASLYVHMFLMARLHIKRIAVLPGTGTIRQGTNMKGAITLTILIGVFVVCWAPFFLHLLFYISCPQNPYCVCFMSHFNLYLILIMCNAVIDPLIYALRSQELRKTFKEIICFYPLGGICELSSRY

[4] = biological target: mMC5R (Mus musculus, UniProt P41149); experiment: cAMP AlphaScreen agonist assay, HEK293 cells stably expressing mouse MC5R; settings: for EC50: read-out: mMC5R EC50, agonist, cAMP; for agonist activity/efficacy at mMC5R (in words): concentrations up to 100 μM
mMC5R, sequence (P41149 whole entry): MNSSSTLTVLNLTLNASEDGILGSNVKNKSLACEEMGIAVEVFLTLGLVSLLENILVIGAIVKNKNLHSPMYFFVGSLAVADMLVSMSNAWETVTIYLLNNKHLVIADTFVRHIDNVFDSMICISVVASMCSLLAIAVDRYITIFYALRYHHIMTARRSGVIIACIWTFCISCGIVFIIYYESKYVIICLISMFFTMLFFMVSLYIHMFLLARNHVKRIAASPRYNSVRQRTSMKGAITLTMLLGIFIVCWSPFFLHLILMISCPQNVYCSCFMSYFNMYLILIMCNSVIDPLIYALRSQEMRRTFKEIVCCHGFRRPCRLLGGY

| EC50 [1] [nM] | agonist activity/efficacy at mMC3R (in words) [2] | EC50 [2] [nM] | EC50 [3] [nM] | EC50 [4] [nM] | decreased agonist potency at mMC1R relative to MDE5-149-2c [1] [fold] | SMILES | agonist activity/efficacy at mMC4R (in words) [3] | further results |
| --- | --- | --- | --- | --- | --- | --- | --- | --- |
| 190 | partial agonist | 3000 | 100 | 46 ± 6 | – | C[C@@H]1NC(=O)[C@H](CN)NC(=O)[C@H](Cc2c[nH]c3ccccc23)NC(=O)[C@H](CCCNC(=N)N)NC(=O)[C@@H](Cc2ccccc2)NC(=O)[C@@H]2CCCN2C(=O)[C@H]2CCCN2C(=O)[C@H](Cc2ccccc2)NC1=O [MDE5-151-1c, c[Pro-DPhe-Arg-Trp-Dap-Ala-Phe-DPro]] (cyclo(P[dF]RW[Dap]AF[dP])) | full agonist | agonist activity/efficacy at mMC1R (in words) [1]: partial agonist |
| – | partially stimulated | – | – | – | – | C[C@@H]1NC(=O)[C@H](CC(N)=O)NC(=O)[C@H](Cc2c[nH]c3ccccc23)NC(=O)[C@H](CCCNC(=N)N)NC(=O)[C@@H](Cc2ccccc2)NC(=O)[C@@H]2CCCN2C(=O)[C@H]2CCCN2C1=O [MDE6-3-1c, c[Pro-DPhe-Arg-Trp-Asn-Ala-DPro]] (cyclo(P[dF]RWNA[dP])) | – | mMC3R percent maximal stimulatory response at 100 μM [2]: 55% @; selectivity for the mMC4R over the mMC3R [3]: > 100 fold |
| 900 ± 200 | partially stimulated | – | – | 6000 | – | N=C(N)NCCC[C@@H]1NC(=O)[C@@H](Cc2ccccc2)NC(=O)[C@H](Cc2c[nH]cn2)NC(=O)[C@@H]2CCCN2C(=O)[C@H]2CCCN2C(=O)[C@H](Cc2c[nH]c3ccccc23)NC1=O [MDE5-147-2c, c[Pro-His-DPhe-Arg-Trp-DPro]] (cyclo(PH[dF]RW[dP])) | stimulated a fraction of the maximal NDP-MSH response | mMC3R percent maximal stimulatory response at 100 μM [2]: 60% @; mMC3R percent maximal stimulatory response at 100 μM ([2]; listed as MDES-147-2c): 60%; mMC4R percent maximal stimulatory response at 100 μM [3]: 65% @; mMC4R percent maximal stimulatory response at 100 μM ([3]; listed as MDES-147-2c): 65% |
| – | partially stimulated | – | – | – | – | N=C(N)NCCC[C@@H]1NC(=O)[C@@H](Cc2ccccc2)NC(=O)[C@H](Cc2c[nH]cn2)NC(=O)[C@@H]2CCCN2C(=O)[C@H]2CCCN2C(=O)[C@H](CN)NC(=O)[C@H](Cc2c[nH]c3ccccc23)NC1=O [MDE6-12-2c, c[Pro-His-DPhe-Arg-Trp-Dap-DPro]] (cyclo(PH[dF]RW[Dap][dP])) | – | decreased agonist potency at mMC1R relative to MDE6-5-2c ([1]; relative to MDE6-5-2c): 418 fold; decreased agonist potency at mMC4R relative to MDE6-5-2c ([3]; relative to MDE6-5-2c): 593 fold; decreased agonist potency at mMC5R relative to MDE6-5-2c ([4]; relative to MDE6-5-2c): 1,100 fold |
| 600 | partially stimulated | – | 150 ± 10 | 48 | – | C[C@@H]1NC(=O)[C@H](CN)NC(=O)[C@H](Cc2c[nH]c3ccccc23)NC(=O)[C@H](CCCNC(=N)N)NC(=O)[C@@H](Cc2ccccc2)NC(=O)[C@@H]2CCCN2C(=O)[C@H]2CCCN2C1=O [MDE6-5-1c, c[Pro-DPhe-Arg-Trp-Dap-Ala-DPro]] (cyclo(P[dF]RW[Dap]A[dP])) | – | agonist activity/efficacy at mMC1R (in words) [1]: full agonist |
| 0.35 | – | 32 | 1.4 | 0.45 | – | C[C@@H]1NC(=O)[C@H](CC(N)=O)NC(=O)[C@H](Cc2c[nH]c3ccccc23)NC(=O)[C@H](CCCNC(=N)N)NC(=O)[C@@H](Cc2ccccc2)NC(=O)[C@H](Cc2cnc[nH]2)NC(=O)[C@@H]2CCCN2C(=O)[C@H]2CCCN2C(=O)[C@H](Cc2ccccc2)NC1=O [MDE5-149-2c, c[Pro-His-DPhe-Arg-Trp-Asn-Ala-Phe-DPro]] (cyclo(H[dF]RWNAF[dP]P)) | – | selectivity for the mMC4R over the mMC3R [3]: 23 fold |
| 1800 | – | – | – | – | – | N=C(N)NCCC[C@@H]1NC(=O)[C@@H](Cc2ccccc2)NC(=O)[C@@H]2CCCN2C(=O)[C@H]2CCCN2C(=O)[C@H](Cc2c[nH]c3ccccc23)NC1=O [MDE5-147-1c, c[Pro-DPhe-Arg-Trp-DPro]] (cyclo(P[dF]RW[dP])) | stimulated a fraction of the maximal NDP-MSH response | mMC5R percent maximal stimulatory response at 100 μM ([4]; 100 μM, no EC50 determinable, relative to NDP-MSH): 75% @ |
| – | – | 510 | – | – | 143 | N=C(N)NCCC[C@@H]1NC(=O)[C@@H](Cc2ccccc2)NC(=O)[C@H](Cc2c[nH]cn2)NC(=O)[C@@H]2CCCN2C(=O)[C@H]2CCCN2C(=O)[C@H](CC(N)=O)NC(=O)[C@H](Cc2c[nH]c3ccccc23)NC1=O [MDE6-10-2c, c[Pro-His-DPhe-Arg-Trp-Asn-DPro]] (cyclo(PH[dF]RWN[dP])) | – | decreased agonist potency at mMC4R relative to MDE5-149-2c [3]: 121 fold; decreased agonist potency at mMC5R relative to MDE5-149-2c [4]: 37 fold |
| 24 | full agonist | 260 | 23 | 18 ± 2 | 70 | C[C@@H]1NC(=O)[C@H](CN)NC(=O)[C@H](Cc2c[nH]c3ccccc23)NC(=O)[C@H](CCCNC(=N)N)NC(=O)[C@@H](Cc2ccccc2)NC(=O)[C@H](Cc2c[nH]cn2)NC(=O)[C@@H]2CCCN2C(=O)[C@H]2CCCN2C(=O)[C@H](Cc2ccccc2)NC1=O [MDE5-151-2c, c[Pro-His-DPhe-Arg-Trp-Dap-Ala-Phe-DPro]] (cyclo(PH[dF]RW[Dap]AF[dP])) | partial agonist | agonist activity/efficacy at mMC1R (in words) [1]: full agonist |
| 400 ± 200 | partially stimulated | – | 130 ± 70 | 40 ± 10 | 1140 | C[C@@H]1NC(=O)[C@H](CC(N)=O)NC(=O)[C@H](Cc2c[nH]c3ccccc23)NC(=O)[C@H](CCCNC(=N)N)NC(=O)[C@@H](Cc2ccccc2)NC(=O)[C@@H]2CCCN2C(=O)[C@H]2CCCN2C(=O)[C@H](Cc2ccccc2)NC1=O [MDE5-149-1c, c[Pro-DPhe-Arg-Trp-Asn-Ala-Phe-DPro]] (cyclo(P[dF]RWNAF[dP])) | – | decreased agonist potency at mMC4R relative to MDE5-149-2c [3]: 90 fold; decreased agonist potency at mMC5R relative to MDE5-149-2c [4]: 90 fold |
| – | – | 300 | – | – | 34 | C[C@@H]1NC(=O)[C@H](CC(N)=O)NC(=O)[C@H](Cc2c[nH]c3ccccc23)NC(=O)[C@H](CCCNC(=N)N)NC(=O)[C@@H](Cc2ccccc2)NC(=O)[C@H](Cc2c[nH]cn2)NC(=O)[C@@H]2CCCN2C(=O)[C@H]2CCCN2C1=O [MDE6-3-2c, c[Pro-His-DPhe-Arg-Trp-Asn-Ala-DPro]] (cyclo(PH[dF]RWNA[dP])) | – | decreased agonist potency at mMC3R relative to MDE5-149-2c ([2]; relative to MDE5-149-2c): 9 fold; decreased agonist potency at mMC4R relative to MDE5-149-2c [3]: 21 fold; decreased agonist potency at mMC5R relative to MDE5-149-2c [4]: 5 fold |

| SMILES | EC50 [1] [nM] | agonist activity/efficacy at mMC3R (in words) [2] | EC50 [2] [nM] | EC50 [3] [nM] | EC50 [4] [nM] | decreased agonist potency at mMC1R relative to MDE5-149-2c [1] [fold] | agonist activity/efficacy at mMC4R (in words) [3] | further results |
| --- | --- | --- | --- | --- | --- | --- | --- | --- |
| N=C(N)NCCC[C@@H]1NC(=O)[C@@H](Cc2ccccc2)NC(=O)[C@@H]2CCCN2C(=O)[C@H]2CCCN2C(=O)[C@H](CN)NC(=O)[C@H](Cc2c[nH]c3ccccc23)NC1=O [MDE6-12-1c, c[Pro-DPhe-Arg-Trp-Dap-DPro]] (cyclo(P[dF]RW[Dap][dP])) | 110 | no observable activity; also recorded: did not possess agonist activity; also recorded: no agonist activity | – | – | – | – | stimulated a fraction of the maximal NDP-MSH response; also recorded: partially stimulated | mMC1R partial agonist, percent maximal NDP stimulation ([1]; PA, relative to maximal NDP-MSH response): PA, 75%; selectivity for the mMC1R over the other receptors ([1]; over mMC3R, mMC4R, mMC5R): > 500 fold; mMC4R percent maximal stimulatory response at 100 μM [3]: 35%; agonist activity/efficacy at mMC5R (in words) [4]: no observable activity; also recorded: unable to stimulate; also recorded: no agonist activity |
| N=C(N)NCCC[C@@H]1NC(=O)[C@@H](Cc2ccccc2)NC(=O)[C@@H]2CCCN2C(=O)[C@H]2CCCN2C(=O)[C@H](CC(N)=O)NC(=O)[C@H](Cc2c[nH]c3ccccc23)NC1=O [MDE6-10-1c, c[Pro-DPhe-Arg-Trp-Asn-DPro]] (cyclo(P[dF]RWN[dP])) | 40 | no agonist activity; also recorded: did not possess agonist activity | – | 1100 | – | – | – | selectivity for the mMC1R over the mMC3R ([1]; agonist potency): > 2500 fold; selectivity for the mMC1R over the mMC5R ([1]; agonist potency): > 1000 fold; increased agonist potency at mMC1R over MDE5-149-1c ([1]; increase over MDE5-149-1c): 10 fold; decreased potency at mMC4R relative to MDE5-149-1c ([3]; decrease relative to MDE5-149-1c): 8 fold; agonist activity/efficacy at mMC5R (in words) [4]: partially stimulated |
